# Legend:
# [1] = system: Bacillus stearothermophilus spores; experiment: Spore outgrowth (color change) of indicators after prevacuum steam sterilization; format: cell-based; settings: 4-pulse prevacuum steam 121° C., 7–13 min
# Description: (§1) The indicators prepared for the Examples were dual rapid readout indicators that provided both a rapid, enzyme-based efficacy test and a confirmatory spore outgrowth test. Spores coated on the carrier strip 16 served as the source of active enzyme whose activity was measured by the rapid enzyme test. These same spores were then incubated in the spore outgrowth portion of the test.
# (§2) Bacillus stearothermophilus, commercially available as ATCC 7953 from American Type Culture Collection, Rockville, Md., was grown overnight (16 hours) at 58° C. in tryptic soy broth. This culture was used to inoculate the surface of agar plates consisting of 8 g/l nutrient broth, 4 g/l yeast extract, 0.1 g/l manganese chloride and 20 g/l agar at pH 7.2. Plates were incubated at 58° C. for 72 hours. Spores were scraped from the plates and suspended in sterile distilled water. The spores were separated from the vegetative debris by centrifuging the suspension at 7000 rpm and 4° C. for 20 minutes. The supernatant was poured off and the spores were resuspended in sterile distilled water. The cleaning procedure was repeated several times. After the final wash, the spores were suspended in sterile distilled water, at a concentration of approximately 1×10^8 spores per milliliter.
# (§3) The spores were then treated with the chemicals identified in Tables 1–5. All chemicals tested were obtained from commercial sources. The spores were centrifuged at 6000 rpm for 10 minutes. The supernatant and coating chemical mixtures were heated at 60–80° C. for several minutes and vortexed to get the material into solution. The spores were then mixed into the sterilant-resistant chemical solution. The sterilant-resistant chemical solution was applied to 5×25 mm, 591 A paper strips (Schleicher & Schuell, Inc., Keene, N.H.) by pipetting 10–15 microliters to each strip for a final population of about 1×10^6 spores per strip. The strips were dried 16 hours at 37° C.
# (§4) The treated spore strips were placed on the bottom of the outer container 12 of the indicator 10 and a barrier was inserted between the spore strip 16 and the inner container 18, which contained enzyme substrate. A […] ( 11/16 inch) disc of polypropylene blown microfiber material, with a weight of 200 g/m^2, commercially available as “THINSULATE™ 200-B brand Thermal Insulation” from 3M Company, St. Paul, Minn., was used as the barrier. The inner container 18 contained 0.67 ml nutrient medium, consisting of 17 g of a bacteriological peptone and a 0.17 g/l of L-alanine, as well as 0.1 g 4-methylumbelliferyl-alpha-D-glucoside, commercially available from Sigma Chemical Company, St. Louis, Mo., dissolved in 200 microliters of N,N-dimethylformamide, and 0.03 g bromocresol purple pH indicator dye, per liter of water. The pH of the enzyme substrate and nutrient medium solution was adjusted to 7.6 with 0.1N sodium hydroxide.
# (§5) Sterilization indicators were made as described above with each of the chemicals and concentrations described in Table 1. Control indicators were made using untreated spores. The indicators were placed in metal instrument trays and exposed at 121° C. in a Getinge Steam Sterilizer (Getinge International, Inc., 1100 Towbin Ave., Lakewood, N.J.) using a 4-pulse prevacuum cycle at 121° C. with a vacuum level of 0.075–0.085 bar and a steam pulse to 1.00 bar for each pulse. Indicators were exposed in the sterilizer for between 7 and 13 minutes. This cycle is depicted in the time-pressure diagram in FIG. 5. After exposure the inner containers containing the enzyme substrate and nutrient medium were crushed and the indicators were incubated at 60° C. The indicators were examined for fluorescence using a 3M™ ATTEST™ Model 190 Rapid Autoreader, commercially available from 3M Company, St. Paul, Minn. Additionally, spore growth, as indicated by a color change from purple to yellow, was determined visually after 168 hours of incubation at 60° C. […]
# [2] = system: enzyme associated with Bacillus stearothermophilus spores; experiment: Rapid enzyme fluorescence readout of dual rapid readout indicators after prevacuum steam sterilization; format: biochemical; settings: 4-pulse prevacuum steam 121° C.; for FLUORESCENCE - PERCENT POSITIVE 1 HR / FLUORESCENCE - PERCENT POSITIVE 2 HR / FLUORESCENCE - PERCENT POSITIVE 3 HR / FLUORESCENCE - PERCENT POSITIVE 4 HR / FLUORESCENCE - PERCENT POSITIVE 5 HR / FLUORESCENCE - PERCENT POSITIVE 6 HR: 7–13 min
# Description: as §1, §2, §3, §4, §5
compound,measurement,setting,value
OCC(O)COCC(O)COCC(O)COCC(O)COCC(O)COCC(O)COCC(O)COCC(O)COCC(O)COCC(O)CO (stereo not shown) [Decaglycerol],NO. GROWTH POSITIVE 168 HR,"[1]; Example 2, 5 mg/ml coating",13
same,NO. GROWTH POSITIVE 168 HR,"[1]; Example 2, 10 mg/ml coating",13
same,NO. GROWTH POSITIVE 168 HR,"[1]; Example 2, 20 mg/ml coating",11
same,NO. GROWTH POSITIVE 168 HR,"[1]; Example 2, 40 mg/ml coating",26
same,NO. GROWTH POSITIVE 168 HR,"[1]; Example 2, 80 mg/ml coating",25
same,NO. GROWTH POSITIVE 168 HR,"[1]; Example 2, 100 mg/ml coating",29
same,FLUORESCENCE - PERCENT POSITIVE 1 HR,"[2]; Example 2, 5 mg/ml coating",0%
same,FLUORESCENCE - PERCENT POSITIVE 2 HR,"[2]; Example 2, 5 mg/ml coating",0%
same,FLUORESCENCE - PERCENT POSITIVE 3 HR,"[2]; Example 2, 5 mg/ml coating",0%
same,FLUORESCENCE - PERCENT POSITIVE 4 HR,"[2]; Example 2, 5 mg/ml coating",23.1%
same,FLUORESCENCE - PERCENT POSITIVE 5 HR,"[2]; Example 2, 5 mg/ml coating",23.1%
same,FLUORESCENCE - PERCENT POSITIVE 6 HR,"[2]; Example 2, 5 mg/ml coating",30.8%
same,FLUORESCENCE - PERCENT POSITIVE 1 HR,"[2]; Example 2, 10 mg/ml coating",0%
same,FLUORESCENCE - PERCENT POSITIVE 2 HR,"[2]; Example 2, 10 mg/ml coating",0%
same,FLUORESCENCE - PERCENT POSITIVE 3 HR,"[2]; Example 2, 10 mg/ml coating",7.7%
same,FLUORESCENCE - PERCENT POSITIVE 4 HR,"[2]; Example 2, 10 mg/ml coating",23.1%
same,FLUORESCENCE - PERCENT POSITIVE 5 HR,"[2]; Example 2, 10 mg/ml coating",23.1%
same,FLUORESCENCE - PERCENT POSITIVE 6 HR,"[2]; Example 2, 10 mg/ml coating",30.8%
same,FLUORESCENCE - PERCENT POSITIVE 1 HR,"[2]; Example 2, 20 mg/ml coating",0%
same,FLUORESCENCE - PERCENT POSITIVE 2 HR,"[2]; Example 2, 20 mg/ml coating",0%
same,FLUORESCENCE - PERCENT POSITIVE 3 HR,"[2]; Example 2, 20 mg/ml coating",9.1%
same,FLUORESCENCE - PERCENT POSITIVE 4 HR,"[2]; Example 2, 20 mg/ml coating",18.2%
same,FLUORESCENCE - PERCENT POSITIVE 5 HR,"[2]; Example 2, 20 mg/ml coating",45.5%
same,FLUORESCENCE - PERCENT POSITIVE 6 HR,"[2]; Example 2, 20 mg/ml coating",63.6%
same,FLUORESCENCE - PERCENT POSITIVE 1 HR,"[2]; Example 2, 40 mg/ml coating",0%
same,FLUORESCENCE - PERCENT POSITIVE 2 HR,"[2]; Example 2, 40 mg/ml coating",0%
same,FLUORESCENCE - PERCENT POSITIVE 3 HR,"[2]; Example 2, 40 mg/ml coating",7.7%
same,FLUORESCENCE - PERCENT POSITIVE 4 HR,"[2]; Example 2, 40 mg/ml coating",42.3%
same,FLUORESCENCE - PERCENT POSITIVE 5 HR,"[2]; Example 2, 40 mg/ml coating",46.2%
same,FLUORESCENCE - PERCENT POSITIVE 6 HR,"[2]; Example 2, 40 mg/ml coating",53.8%
same,FLUORESCENCE - PERCENT POSITIVE 1 HR,"[2]; Example 2, 80 mg/ml coating",0%
same,FLUORESCENCE - PERCENT POSITIVE 2 HR,"[2]; Example 2, 80 mg/ml coating",12.0%
same,FLUORESCENCE - PERCENT POSITIVE 3 HR,"[2]; Example 2, 80 mg/ml coating",36.0%
same,FLUORESCENCE - PERCENT POSITIVE 4 HR,"[2]; Example 2, 80 mg/ml coating",64.0%
same,FLUORESCENCE - PERCENT POSITIVE 5 HR,"[2]; Example 2, 80 mg/ml coating",72.0%
same,FLUORESCENCE - PERCENT POSITIVE 6 HR,"[2]; Example 2, 80 mg/ml coating",76.0%
same,FLUORESCENCE - PERCENT POSITIVE 1 HR,"[2]; Example 2, 100 mg/ml coating",0%
same,FLUORESCENCE - PERCENT POSITIVE 2 HR,"[2]; Example 2, 100 mg/ml coating",6.9%
same,FLUORESCENCE - PERCENT POSITIVE 3 HR,"[2]; Example 2, 100 mg/ml coating",48.3%
same,FLUORESCENCE - PERCENT POSITIVE 4 HR,"[2]; Example 2, 100 mg/ml coating",69.0%
same,FLUORESCENCE - PERCENT POSITIVE 5 HR,"[2]; Example 2, 100 mg/ml coating",79.3%
same,FLUORESCENCE - PERCENT POSITIVE 6 HR,"[2]; Example 2, 100 mg/ml coating",89.7%
POE(10) Phytosterol,NO. GROWTH POSITIVE 168 HR,"[1]; Example 5, 50 mg/ml coating",2
same,FLUORESCENCE - PERCENT POSITIVE 1 HR,"[2]; Example 5, 50 mg/ml coating",0%
same,FLUORESCENCE - PERCENT POSITIVE 2 HR,"[2]; Example 5, 50 mg/ml coating",0%
same,FLUORESCENCE - PERCENT POSITIVE 3 HR,"[2]; Example 5, 50 mg/ml coating",0%
same,FLUORESCENCE - PERCENT POSITIVE 4 HR,"[2]; Example 5, 50 mg/ml coating",0%
Decaglyceryl Monomyristate,NO. GROWTH POSITIVE 168 HR,"[1]; Example 5, 50 mg/ml coating",3
same,NO. GROWTH POSITIVE 168 HR,"[1]; Example 5, 100 mg/ml coating",2
same,accuracy of sterilization indicators compared to indicators made with untreated spores,[2],improved
same,FLUORESCENCE - PERCENT POSITIVE 1 HR,"[2]; Example 5, 50 mg/ml coating",0%
same,FLUORESCENCE - PERCENT POSITIVE 2 HR,"[2]; Example 5, 50 mg/ml coating",33.3%
same,FLUORESCENCE - PERCENT POSITIVE 3 HR,"[2]; Example 5, 50 mg/ml coating",33.3%
same,FLUORESCENCE - PERCENT POSITIVE 4 HR,"[2]; Example 5, 50 mg/ml coating",33.3%
same,FLUORESCENCE - PERCENT POSITIVE 1 HR,"[2]; Example 5, 100 mg/ml coating",0%
same,FLUORESCENCE - PERCENT POSITIVE 2 HR,"[2]; Example 5, 100 mg/ml coating",100%
same,FLUORESCENCE - PERCENT POSITIVE 3 HR,"[2]; Example 5, 100 mg/ml coating",100%
same,FLUORESCENCE - PERCENT POSITIVE 4 HR,"[2]; Example 5, 100 mg/ml coating",100%

# Source: patent publication US7045343B2, “Sterilization indicator test packs” (3M Innovative Properties Company, priority 1998, dated 2006)
